In US9693556B2, “Herbicidal pyridazinone derivatives” (SYNGENTA LIMITED, priority 2011, dated 2017):

Legend:
Assay type in all cases: in vivo
[1] = system: Alopecurus myosuroides (ALOMY); assay: Pre-emergence herbicidal glasshouse test on Alopecurus myosuroides; details: pre-emergence; 1000 g/h; evaluated after 13 days
Outline: (§1)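 Application rate 1000 g/h, formulated in acetone/water (50:50) with 0.5% Tween 20 and sprayed onto pots sown 1 day (pre-emergence) or 8 days (post-emergence) earlier. Evaluation at 13 days rated damage from 1 (0-19%) to 5 (80-100%).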

Setaria faberi (SETFA) [2] = assay: Pre-emergence herbicidal glasshouse test on Setaria faberi; details: pre-emergence; 1000 g/h; evaluated after 13 days
Outline: as §1

[3] = system: Echinochloa crus-galli (ECHCG); assay: Pre-emergence herbicidal glasshouse test on Echinochloa crus-galli; details: pre-emergence; 1000 g/h; evaluated after 13 days
Outline: as §1

Solanum nigrum (SOLNI) [4] = assay: Pre-emergence herbicidal glasshouse test on Solanum nigrum; details: pre-emergence; 1000 g/h; evaluated after 13 days
Outline: as §1

[5] = system: Amaranthus retoflexus (AMARE); assay: Pre-emergence herbicidal glasshouse test on Amaranthus retoflexus; details: pre-emergence; 1000 g/h; evaluated after 13 days
Outline: as §1

[6] = system: Ipomoea hederacea (IPOHE); assay: Pre-emergence herbicidal glasshouse test on Ipomoea hederacea; details: pre-emergence; 1000 g/h; evaluated after 13 days
Outline: as §1

[7] = system: Alopecurus myosuroides (ALOMY); assay: Post-emergence herbicidal glasshouse test on Alopecurus myosuroides; details: post-emergence; 1000 g/h; evaluated after 13 days
Outline: as §1

Setaria faberi (SETFA) [8] = assay: Post-emergence herbicidal glasshouse test on Setaria faberi; details: post-emergence; 1000 g/h; evaluated after 13 days
Outline: as §1

[9] = system: Echinochloa crus-galli (ECHCG); assay: Post-emergence herbicidal glasshouse test on Echinochloa crus-galli; details: post-emergence; 1000 g/h; evaluated after 13 days
Outline: as §1

Solanum nigrum (SOLNI) [10] = assay: Post-emergence herbicidal glasshouse test on Solanum nigrum; details: post-emergence; 1000 g/h; evaluated after 13 days
Outline: as §1

[11] = system: Amaranthus retoflexus (AMARE); assay: Post-emergence herbicidal glasshouse test on Amaranthus retoflexus; details: post-emergence; 1000 g/h; evaluated after 13 days
Outline: as §1

[12] = system: Ipomoea hederacea (IPOHE); assay: Post-emergence herbicidal glasshouse test on Ipomoea hederacea; details: post-emergence; 1000 g/h; evaluated after 13 days
Outline: as §1

| Compound | PRE Application ALOMY herbicidal damage (five point scale) [1] | PRE Application SETFA herbicidal damage (five point scale) (Setaria faberi (SETFA) [2]) | PRE Application ECHCG herbicidal damage (five point scale) [3] | PRE Application SOLNI herbicidal damage (five point scale) (Solanum nigrum (SOLNI) [4]) | PRE Application AMARE herbicidal damage (five point scale) [5] | PRE Application IPOHE herbicidal damage (five point scale) [6] | POST Application ALOMY herbicidal damage (five point scale) [7] | POST Application SETFA herbicidal damage (five point scale) (Setaria faberi (SETFA) [8]) | POST Application ECHCG herbicidal damage (five point scale) [9] | POST Application SOLNI herbicidal damage (five point scale) (Solanum nigrum (SOLNI) [10]) | POST Application AMARE herbicidal damage (five point scale) [11] | POST Application IPOHE herbicidal damage (five point scale) [12] |
| --- | --- | --- | --- | --- | --- | --- | --- | --- | --- | --- | --- | --- |
| Cn1ncc(-c2ccc(C(F)(F)F)cc2S(C)(=O)=O)c(O)c1=O [Compound 1.028, 4-hydroxy-2-methyl-5-[2-methylsulfonyl-4-(trifluoromethyl)phenyl]pyridazin-3-one] | 5 (5=80-100% damage) | 5 (5=80-100% damage) | 5 (5=80-100% damage) | 5 (5=80-100% damage) | 5 (5=80-100% damage) | 5 (5=80-100% damage) | 5 (5=80-100% damage) | 5 (5=80-100% damage) | 5 (5=80-100% damage) | 5 (5=80-100% damage) | 5 (5=80-100% damage) | 5 (5=80-100% damage) |
| CCn1ncc(-c2ccc(Cl)cc2S(C)(=O)=O)c(O)c1=O [Compound 2.017] | 5 (5=80-100% damage) | 5 (5=80-100% damage) | 5 (5=80-100% damage) | 5 (5=80-100% damage) | 5 (5=80-100% damage) | 5 (5=80-100% damage) | 5 (5=80-100% damage) | 5 (5=80-100% damage) | 5 (5=80-100% damage) | 5 (5=80-100% damage) | 5 (5=80-100% damage) | 5 (5=80-100% damage) |
| Cn1ncc(-c2ccc(C(F)(F)F)cc2S(C)(=O)=O)c(OC(=O)c2ccccc2)c1=O [Compound 3.002] | 5 (5=80-100% damage) | 5 (5=80-100% damage) | 5 (5=80-100% damage) | 5 (5=80-100% damage) | 5 (5=80-100% damage) | 5 (5=80-100% damage) | 5 (5=80-100% damage) | 5 (5=80-100% damage) | 5 (5=80-100% damage) | 5 (5=80-100% damage) | 5 (5=80-100% damage) | 5 (5=80-100% damage) |
| CC(C)c1cccc(-c2c(C(F)(F)F)ccn(-c3cnn(C)c(=O)c3O)c2=O)c1 [Compound 7.014] | 3 (3=40-59% damage) | 4 (4=60-79% damage) | 3 (3=40-59% damage) | 5 (5=80-100% damage) | 5 (5=80-100% damage) | 1 (1=0-19% damage) | 1 (1=0-19% damage) | 4 (4=60-79% damage) | 5 (5=80-100% damage) | 5 (5=80-100% damage) | 5 (5=80-100% damage) | 3 (3=40-59% damage) |
| Cn1ncc(-n2ccc3ccccc3c2=O)c(O)c1=O [Compound 1.069] | 1 (1=0-19% damage) | 2 (2=20-39% damage) | 5 (5=80-100% damage) | 2 (2=20-39% damage) | 2 (2=20-39% damage) | 4 (4=60-79% damage) | 2 (2=20-39% damage) | 1 (1=0-19% damage) | 5 (5=80-100% damage) | 4 (4=60-79% damage) | 5 (5=80-100% damage) | 4 (4=60-79% damage) |
| Cn1ncc(-c2cccc3ccccc23)c(O)c1=O [Compound 1.095] | 1 (1=0-19% damage) | 1 (1=0-19% damage) | 1 (1=0-19% damage) | 1 (1=0-19% damage) | 1 (1=0-19% damage) | 1 (1=0-19% damage) | 1 (1=0-19% damage) | 1 (1=0-19% damage) | 1 (1=0-19% damage) | 1 (1=0-19% damage) | 1 (1=0-19% damage) | 1 (1=0-19% damage) |
| COc1ccc(C(C)C)cc1-c1c(C(F)(F)F)ccn(-c2cnn(C)c(=O)c2O)c1=O [Compound 7.015] | 3 (3=40-59% damage) | 4 (4=60-79% damage) | 3 (3=40-59% damage) | 5 (5=80-100% damage) | 5 (5=80-100% damage) | 4 (4=60-79% damage) | 2 (2=20-39% damage) | 3 (3=40-59% damage) | 4 (4=60-79% damage) | 5 (5=80-100% damage) | 5 (5=80-100% damage) | 3 (3=40-59% damage) |
| C=Cc1ccccc1-c1c(C(F)(F)F)ccn(-c2cnn(C)c(=O)c2O)c1=O [Compound 7.034] | 2 (2=20-39% damage) | 1 (1=0-19% damage) | 1 (1=0-19% damage) | 5 (5=80-100% damage) | 5 (5=80-100% damage) | 1 (1=0-19% damage) | 1 (1=0-19% damage) | 3 (3=40-59% damage) | 3 (3=40-59% damage) | 5 (5=80-100% damage) | 5 (5=80-100% damage) | 2 (2=20-39% damage) |
| COc1nc(C(F)(F)F)ccc1-c1cnn(C)c(=O)c1O [Compound 4.005] | 1 (1=0-19% damage) | 1 (1=0-19% damage) | 1 (1=0-19% damage) | 1 (1=0-19% damage) | 5 (5=80-100% damage) | 1 (1=0-19% damage) | 1 (1=0-19% damage) | 1 (1=0-19% damage) | 1 (1=0-19% damage) | 3 (3=40-59% damage) | 5 (5=80-100% damage) | 2 (2=20-39% damage) |
| Cn1nc(N)c(-c2ccc(C(F)(F)F)cc2S(C)(=O)=O)c(O)c1=O [Compound 2.039] | 5 (5=80-100% damage) | 5 (5=80-100% damage) | 5 (5=80-100% damage) | 5 (5=80-100% damage) | 5 (5=80-100% damage) | 5 (5=80-100% damage) | 5 (5=80-100% damage) | 5 (5=80-100% damage) | 5 (5=80-100% damage) | 5 (5=80-100% damage) | 5 (5=80-100% damage) | 5 (5=80-100% damage) |
